Experimental findings from patent US20260224582A1, “Heterobicyclic amides as inhibitors of CD38” (Cerevance, Inc., priority 2022, published 2026) are described below.

The target of assay [1] is T1, Recombinant human CD38 (Homo sapiens, UniProt P28907).
T1 sequence (P28907 1-300): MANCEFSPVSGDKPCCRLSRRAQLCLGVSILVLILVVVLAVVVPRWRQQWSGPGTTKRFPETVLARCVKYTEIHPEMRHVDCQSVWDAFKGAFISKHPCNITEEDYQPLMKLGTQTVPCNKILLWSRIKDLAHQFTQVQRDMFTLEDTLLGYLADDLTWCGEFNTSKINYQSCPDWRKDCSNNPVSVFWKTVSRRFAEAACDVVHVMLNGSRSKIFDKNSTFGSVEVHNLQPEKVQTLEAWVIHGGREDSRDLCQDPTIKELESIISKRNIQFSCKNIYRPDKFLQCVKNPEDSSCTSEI
Briefly: Human CD38 hydrolase assay (fluorescence-based, ε-NAD substrate). As to conditions: recombinant human CD38 0.8 nM, 4 μM ε-NAD, 30 min preincubation at 25° C. Format: biochemical. How it is done:
The ability of test compounds to inhibit human CD38 hydrolase activity was measured in a fluorescence-based assay using non-physiological NAD^+ substrate analogue 1,N^6-etheno NAD^+ (ε-NAD). Recombinant human CD38 (0.8 nM) was preincubated with test compounds in 384-well black microplates for 30 min at 25° C. in PBS (—Ca^2+/Mg^2+) containing 0.005% BSA (pH 7.4). CD38 hydrolase activity was initiated by addition of 4 μM ε-NAD, which yields the fluorescent product 1,N^6-etheno ADP-ribose. Formation of fluorescent product was followed using ClarioStar Plus (BMG) microplate reader by reading fluorescence (excitation λ=300 nm; emission λ=410 nm) at two time points, one immediately after substrate addition (t=0) and one at 10 min (t=10). Data was analysed by subtracting the values detected at t=0 from t=10 to correct for variation in baseline fluorescence. Fluorescence values were converted to percent inhibition using the average of high signal (CD38 and ε-NAD) and low signal (CD38 and ε-NAD in the presence of a tool CD38 inhibitor) control wells. IC50 values were determined from a 10-point, half log concentration response curve with a four-parameter logistic equation.

For assay [2], the target named is T2, Recombinant mouse CD38 (Mus musculus, UniProt P56528).
T2 sequence (P56528 1-304): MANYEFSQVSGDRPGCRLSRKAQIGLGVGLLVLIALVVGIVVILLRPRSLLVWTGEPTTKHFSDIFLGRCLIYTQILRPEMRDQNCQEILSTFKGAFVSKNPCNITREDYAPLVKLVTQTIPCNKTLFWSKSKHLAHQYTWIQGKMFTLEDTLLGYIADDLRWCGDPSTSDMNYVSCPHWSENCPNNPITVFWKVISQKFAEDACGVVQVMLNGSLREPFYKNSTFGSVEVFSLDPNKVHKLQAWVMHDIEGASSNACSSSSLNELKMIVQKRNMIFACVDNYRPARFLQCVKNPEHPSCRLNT
The assay can be described thus: Mouse CD38 hydrolase assay (fluorescence-based, ε-NAD substrate). As to conditions: recombinant mouse CD38 0.4 nM, 12 μM ε-NAD, 30 min preincubation at 25° C. Format: biochemical. How it is done:
The ability of test compounds to inhibit mouse CD38 hydrolase activity was measured in a fluorescence-based assay using non-physiological NAD^+ substrate analogue 1,N^6-etheno NAD^+ (&-NAD). Recombinant mouse CD38 (0.4 nM) was preincubated with test compounds in 384-well black microplates for 30 min at 25° C. in PBS (—Ca^2+/Mg^2+) containing 0.005% BSA (pH 7.4). CD38 hydrolase activity was initiated by addition of 12 μM ε-NAD, which yields the fluorescent product 1,N^6-etheno ADP-ribose. Formation of fluorescent product was followed using ClarioStar Plus (BMG) microplate reader by reading fluorescence (excitation λ=300 nm; emission λ=410 nm) at two time points, one immediately after substrate addition (t=0) and one at 6 min (t=6).
Data was analysed by subtracting the values detected at t=0 from t=6 to correct for variation in baseline fluorescence. Fluorescence values were converted to percent inhibition using the average of high signal (CD38 and ε-NAD) and low signal (CD38 and ε-NAD in the presence of a tool CD38 inhibitor) control wells. IC50 values were determined from a 10-point, halflog concentration response curve with a four-parameter logistic equation.

Usually IC50 stands for the midpoint of a concentration-inhibition curve. Regarding `O=C(N[C@H]1CC[C@H](N2CC[C@@H](F)C2)CC1)c1nc(-n2ccnc2)nc2ncccc12` [Example 58, N-((1R,4r)-4-((R)-3-fluoropyrrolidin-1-yl)cyclohexyl)-2-(1H-imidazol-1-yl)pyrido[2,3-d]pyrimidine-4-carboxamide], the values for the IC50 in assay [1] and in assay [2] were not above 100 nM and not above 40 nM, respectively.
Taken in the same sequence, the figures for `O=C(N[C@H]1CC[C@H](N2CC(C(F)(F)F)C2)CC1)c1cn2ncnc2c(-n2ccnc2)n1` [Example 56, 8-(1H-imidazol-1-yl)-N-((1r,4r)-4-(3-(trifluoromethyl)azetidin-1-yl)cyclohexyl)-[1,2,4]triazolo[1,5-a]pyrazine-6-carboxamide] were not above 100 nM and not above 40 nM.
Taken in the same sequence, the figures for `O=C(N[C@H]1CC[C@H](N2CC[C@@H](O)C2)CC1)c1nc(-n2ccnc2)nn2cccc12` [Example 27, N-((1R,4r)-4-((R)-3-hydroxypyrrolidin-1-yl)cyclohexyl)-2-(1H-imidazol-1-yl)pyrrolo[2,1-f][1,2,4]triazine-4-carboxamide] were not above 40 nM and not above 40 nM.
Taken in the same sequence, the figures for `O=C(N[C@H]1CC[C@H](NCC(F)(F)F)CC1)c1nc(-n2ccnc2)c2cccn2n1` [Example 16, 4-(1H-imidazol-1-yl)-N-((1r,4r)-4-((2,2,2-trifluoroethyl)amino)cyclohexyl)pyrrolo[2,1-f][1,2,4]triazine-2-carboxamide] were not above 1000 nM and not above 40 nM.
Regarding `O=C(NC1CC2(CC(NCC(F)(F)F)C2)C1)c1nc(-n2ccnc2)nn2cccc12` (single isomer, unassigned) [Example 10, 2-(1H-imidazol-1-yl)-N-(6-((2,2,2-trifluoroethyl)amino)spiro[3.3]heptan-2-yl)pyrrolo[2,1-f][1,2,4]triazine-4-carboxamide], the IC50 in assay [1] and in assay [2] was not above 40 nM in each case.
As to `O=C(N[C@H]1CC[C@@H](N2CCCC2)CC1)c1nc(-n2ccnc2)nn2cccc12` [Example 44, 2-(1H-imidazol-1-yl)-N-((1s,4s)-4-(pyrrolidin-1-yl)cyclohexyl)pyrrolo[2,1-f][1,2,4]triazine-4-carboxamide], the IC50 is not above 1000 nM in assay [1] and not above 40 nM in assay [2].
Taken in the same sequence, the figures for `CC1(F)CN([C@H]2CC[C@H](NC(=O)c3cn4ncnc4c(-n4ccnc4)n3)CC2)C1` [Example 46, N-((1r,4r)-4-(3-fluoro-3-methylazetidin-1-yl)cyclohexyl)-8-(1H-imidazol-1-yl)-[1,2,4]triazolo[1,5-a]pyrazine-6-carboxamide] were not above 100 nM and not above 40 nM.
On to `O=C(N[C@H]1CC[C@H](NCC(F)(F)F)CC1)c1nc(-c2cncs2)nn2cccc12` [Example 30, 2-(thiazol-5-yl)-N-((1r,4r)-4-((2,2,2-trifluoroethyl)amino)cyclohexyl)pyrrolo[2,1-f][1,2,4]triazine-4-carboxamide], for which the IC50 in assay [1] was not above 100 nM; in assay [2] it was not above 40 nM.
Taken in the same sequence, the figures for `O=C(N[C@H]1C[C@H](NCC(F)(F)F)C1)c1nc(-n2ccnc2)nn2cccc12` [Example 11, 2-(1H-imidazol-1-yl)-N-((1r,3r)-3-((2,2,2-trifluoroethyl)amino)cyclobutyl)pyrrolo[2,1-f][1,2,4]triazine-4-carboxamide] were not above 40 nM and not above 40 nM.
Turning to `O=C(N[C@H]1CC[C@H](N2CC[C@H](F)C2)CC1)c1cn2cccc2c(-n2ccnc2)n1` [Example 22, N-((1S,4r)-4-((S)-3-fluoropyrrolidin-1-yl)cyclohexyl)-1-(1H-imidazol-1-yl)pyrrolo[1,2-a]pyrazine-3-carboxamide], the results for the IC50 in assay [1] and in assay [2] were not above 1000 nM and not above 40 nM, respectively.
Taken in the same sequence, the figures for `O=C(N[C@H]1CC[C@H](NCC(F)F)CC1)c1cn2ccnc2c(-n2ccnc2)n1` [Example 38, N-((1r,4r)-4-((2,2-difluoroethyl)amino)cyclohexyl)-8-(1H-imidazol-1-yl) imidazo[1,2-a]pyrazine-6-carboxamide] were not above 1000 nM and not above 40 nM.
Taken in the same sequence, the figures for `O=C(N[C@H]1CC[C@H](NCC(F)(F)F)CC1)c1nc(-c2cncs2)cn2cccc12` [Example 5, 3-(thiazol-5-yl)-N-((1r,4r)-4-((2,2,2-trifluoroethyl)amino)cyclohexyl)pyrrolo[1,2-a]pyrazine-1-carboxamide] were not above 1000 nM and not above 40 nM.
For `O=C(NC1CCOCC1)c1nc(-n2ccnc2)nc2ncccc12` [Example 3, 2-(1H-imidazol-1-yl)-N-(tetrahydro-2H-pyran-4-yl)pyrido[2,3-d]pyrimidine-4-carboxamide], the IC50 in assay [1] and in assay [2] was not above 40 nM in each case.
For the compound `Cn1cncc1-c1nc(C(=O)N[C@H]2CC[C@H](NCC(F)(F)F)CC2)c2cccn2n1` [Example 17, 2-(1-methyl-1H-imidazol-5-yl)-N-((1r,4r)-4-((2,2,2-trifluoroethyl)amino)cyclohexyl)pyrrolo[2,1-f][1,2,4]triazine-4-carboxamide], the IC50 in assay [1] and in assay [2] was not above 40 nM in each case.
In the case of `O=C(N[C@H]1CC[C@H](N2CC[C@@H](F)C2)CC1)c1cn2cccc2c(-n2ccnc2)n1` [Example 24, N-((1R,4r)-4-((R)-3-fluoropyrrolidin-1-yl)cyclohexyl)-1-(1H-imidazol-1-yl)pyrrolo[1,2-a]pyrazine-3-carboxamide], the values for the IC50 in assay [1] and in assay [2] were not above 1000 nM and not above 40 nM, respectively.
Taken in the same sequence, the figures for `O=C(N[C@H]1CC[C@H](N2CC[C@@H](F)C2)CC1)c1cn2ccnc2c(-n2ccnc2)n1` [Example 39, N-((1R,4r)-4-((R)-3-fluoropyrrolidin-1-yl)cyclohexyl)-8-(1H-imidazol-1-yl) imidazo[1,2-a]pyrazine-6-carboxamide] were not above 100 nM and not above 40 nM.
Taken in the same sequence, the figures for `O=C(N[C@H]1CC[C@H](NCC(F)(F)F)CC1)c1cc2cccnc2c(-c2cncs2)n1` [Example 7, 8-(thiazol-5-yl)-N-((1r,4r)-4-((2,2,2-trifluoroethyl)amino)cyclohexyl)-1,7-naphthyridine-6-carboxamide] were not above 1000 nM and not above 40 nM.
Turning to `O=C(N[C@H]1CC[C@H](NCC(F)(F)F)CC1)c1cn2cccc2c(-n2ccnc2)n1` [Example 15, 1-(1H-imidazol-1-yl)-N-((1r,4r)-4-((2,2,2-trifluoroethyl)amino)cyclohexyl)pyrrolo[1,2-a]pyrazine-3-carboxamide], the IC50 in assay [1] and in assay [2] was not above 40 nM throughout.
`O=C(N[C@H]1CC[C@H](N2CC[C@H](F)C2)CC1)c1nc(-n2ccnc2)nc2ncccc12` [Example 32, N-((1S,4r)-4-((S)-3-fluoropyrrolidin-1-yl)cyclohexyl)-2-(1H-imidazol-1-yl)pyrido[2,3-d]pyrimidine-4-carboxamide]: the values for the IC50 in assay [1] and in assay [2] were not above 100 nM and not above 40 nM, respectively.
`O=C(N[C@H]1CC[C@H](N2CC[C@H](F)C2)CC1)c1cn2nccc2c(-n2ccnc2)n1` [Example 36, N-((1S,4r)-4-((S)-3-fluoropyrrolidin-1-yl)cyclohexyl)-4-(1H-imidazol-1-yl)pyrazolo[1,5-a]pyrazine-6-carboxamide]: the IC50 is not above 100 nM in assay [1] and not above 40 nM in assay [2].
